Source: patent US20250099512A1, “USE OF BACTEROIDES FRAGILIS IN IMPROVEMENT AND TREATMENT OF DIARRHEA” (priority 2022, published 2025)
Structures can show the parent of a compound that is named as a salt.

Tests used:
[1] = system: mice with Escherichia coli-induced diarrhea; test: Effect on mice with Escherichia coli-induced diarrhea (Example 6); type: in vivo; conditions: positive control, berberine hydrochloride 0.01 g/mL i.g. QD*7 days; Escherichia coli i.p. model
Method: Escherichia coli preserved on a slant was inoculated on a nutrient agar plate and cultured at 37° C. for 24 h. Several colonies were then picked, inoculated into MH broth, followed by another 24 hours of culture at 37° C. The culture was then diluted with sterilized normal saline and subjected to turbidity adjustment using a 0.5 Mcfarland turbidimetric tube, thus achieving a bacterial content of 3×10^8 CFU/mL.
Mice weighing about 20 g were selected, and each mouse was intraperitoneally injected with 0.2 mL of the Escherichia coli bacteria solution with a bacterial content of 3×10^8 CFU/mL for diarrhea induction. A positive control group received a 0.01 g/mL aqueous berberine hydrochloride solution administered intragastrically. The experimental grouping and procedures were the same as in Example 3. The mice were continuously observed for 5 h, and the diarrhea indices of the mice were recorded.

[2] = system: Cryptosporidium cuniculus; test: Effect on diarrhea in rabbits infected with Cryptosporidium cuniculus, oocysts in stools (Example 12); type: in vivo, New Zealand white rabbits
Excerpt: A parasite-associated diarrhea model was constructed by intragastric administration of Cryptosporidium cuniculus oocysts (extracted from a single positive stool sample from a rabbit farm in Jilin) in New Zealand white rabbits. Subsequently, the Bacteroides fragilis live bacteria solution, inactivated bacteria powder and lysate solution (prepared in Example 2) were each used for treatment. The therapeutic effects of the Bacteroides fragilis live bacteria solution, inactivated bacteria powder and lysate solution were observed.
New Zealand white rabbits aged 35 days were selected and randomly divided into the following 6 groups: a blank group (group 1), a model group (group 2), a positive control group (nitazoxanide) (group 3), a Bacteroides fragilis inactivated bacteria powder group (group 4), a Bacteroides fragilis lysate solution group (group 5), and a Bacteroides fragilis live bacteria solution group (group 6), with 8 rabbits in each group. The New Zealand white rabbits in groups 2 to 6 were intragastrically inoculated with 1.5×10^4 Cryptosporidium cuniculus oocysts, and the blank group was intragastrically given normal saline. […] The stools were collected to prepare a stool suspension, and structures with oocysts were observed under a microscope, indicating successful modeling. Therefore, treatment could be carried out. The blank group was given normal saline, and the treatment groups were subjected to drug administration. The treatment was carried out twice daily for 7 consecutive days. The New Zealand white rabbits were observed daily for diarrhea condition. On day 1 of the treatment and at the end of the treatment, the stool samples were collected, and the number of oocysts was observed under a microscope.

Structure (SMILES) | Diarrhea index [1] | Number of oocysts in stools (×10^6 oocysts/rabbit, mean ± SD) ([2]; D 1 of administration, i.g. Bid*7 days, nitazoxanide 10 mg/kg, Bacteroides fragilis 1 × 10^8 cells/mL) | Number of oocysts in stools (×10^6 oocysts/rabbit, mean ± SD) ([2]; D 2 of administration, doses as Table 23) | Number of oocysts in stools (×10^6 oocysts/rabbit, mean ± SD) ([2]; D 3 of administration, doses as Table 23) | Number of oocysts in stools (×10^6 oocysts/rabbit, mean ± SD) ([2]; D 4 of administration, doses as Table 23) | Number of oocysts in stools (×10^6 oocysts/rabbit, mean ± SD) ([2]; D 5 of administration, doses as Table 23) | Number of oocysts in stools (×10^6 oocysts/rabbit, mean ± SD) ([2]; D 6 of administration, doses as Table 23) | Number of oocysts in stools (×10^6 oocysts/rabbit, mean ± SD) ([2]; D 7 of administration, doses as Table 23) | total number of oocysts in the stools of each New Zealand rabbit during the treatment period ([2]; FIG. 5, P<0.0001, doses as Table 23)
COc1ccc2cc3[n+](cc2c1OC)CCc1cc2c(cc1-3)OCO2 [berberine hydrochloride] | 1.25 ± 0.13 | – | – | – | – | – | – | – | –
CC(=O)Oc1ccccc1C(=O)Nc1ncc([N+](=O)[O-])s1 [nitazoxanide] | – | 1.8 ± 0.6 ×10^6 oocysts/rabbit | 3.2 ± 1.5 ×10^6 oocysts/rabbit | 2.8 ± 0.9 ×10^6 oocysts/rabbit | 2.2 ± 0.2 ×10^6 oocysts/rabbit | 1.5 ± 1.1 ×10^6 oocysts/rabbit | 1.3 ± 0.1 ×10^6 oocysts/rabbit | 0.6 ± 0.2 ×10^6 oocysts/rabbit | significantly lower than that in the model group
